# Patent US4048299A, “Anticaries confectionaries and oral health products” (William Wrigley, Jr. Co., priority 1970, dated 1977)
# Legend:
# [1] = In vivo caries evaluation, laboratory animals (summary); conditions: one percent level in diet
# Text: (§1) Standard laboratory techniques were used to complie the data presented. In each case the aldehyde was incorporated into each specimen's food in a one percent, by weight, quantity, over a period of several weeks. In all cases, caries reduction was noted.
# (§2) The aldehydes tested in vivo were pyruvaldehyde, d,1-glyceraldehyde, crystalline dimer, glycolaldehyde, octanaldehyde, nonanaldehyde, decanaldehyde, undecylenic aldehyde, and lauric aldehyde. The polyaldehydes tested were dialdehyde starch, dialdehyde starch 50 percent oxidized, dialdehyde starch 90 percent oxidized, and dialdehyde galactomannan gum.
# oral microorganisms = test: Acid production inhibition in vitro (summary); format: cell-based; conditions: in words, summary of tables
# Experimental: (§3) Other in vitro evaluations utilized a broth tube analysis of representative anticaries aldehydes incorporated in the vehicles of this invention against cultures of acid producing microorganisms normally present in the mouth. Standard laboratory procedures were utilized throughout to evaluate the acid production inhibition and growth inhibition over the incubation time of up to 24 hours.
# [2] = tested on: Mixed human oral microorganisms; test: Growth inhibition by aldehydes in product vehicles, pour-plate technique; format: cell-based; conditions: 1 to 5 percent aldehyde
# Experimental: as §3
# (§4) (b)Measured by pour-plate technique.
# (§5) In formulating Tables XIII - XIX representative aldehydes having anticaries activity were selected from those tested as summarized in Tables I - XII and incorporated in seven representative types of products. The products included dextrose and sucrose syrups, obtained commercially in food grades, and compressed candy, hard candy, mouthwash, toothpaste and toothpowder. The five latter products also employed food grade and reagent grade ingredients. These products were formulated by well-known and representative recipes for each type of product. The products were formed in batches of approximately 1 pound or 1 liter and contained all their normal constitutents. Aliquots of each products were blended with one of each of the representative aldehydes selected except in the case of hard candy.
# (§6) Aliquots of the aldehyde incorporating sugar syrups, confectioneries, and mouthwash formulations were added directly to assay flasks and mixed or dissolved as required. Aqueous extracts of the aldehyde incorporated in toothpaste and toothpowder were prepared and aliquots of the filtrate were added to the assay flasks.
# (§7) The assay flasks contained the necessary components for a normal growth response from the organisms employed, Lactobacillus casei ATCC 4646, originally a human oral isolate, Streptococcus spp. K1-R, human caries isolate, and a mixed oral microbial population obtained fresh from saliva on the morning prior to the initiation of each assay incubation period. The assay flask medium was dissolved in distilled water in which was added an equal volume of filter sterilized human saliva to yield a 50 percent saliva-medium combination. The medium contained all normal ingredients such as yeast extract, proteose peptone number 3 (a proprietary formula of Difco Laboratories, Detroit, Michigan) monopotassium phosphate, Tween 80 (polyoxethylene sorbitan monoleate) and water, except a carbon source. This was supplied by the aliquot of the sucrose syrup, dextrose syrup, sucrose in the compressed candy tablet and sucrose in the hard candy product. In addition, an aliquot of sucrose solution concentrate was added to the assay flask as a carbon source for evaluation of mouthwash, toothpaste, and toothpowder vehicles.
# (§8) The lower aldehydes such as glycolaldehyde, crystalline dimer; pyruvaldehyde, aqueous syrup; d,1-glyceraldehyde solution and crystalline dimer; and glutaraldehyde, employed as a 50 percent aqueous solution, are water soluble and were employed directly either as powders or aqueous solutions. The C8 to C12, longer chain aliphatic aldehydes, of which decyl and dodecyl (lauric) were selected as representative, are oil soluble and are prepared and added to the products as emulsions with four parts of Tween 20, polyoxethylene sorbitan monolaurate. The aldehyde concentrations in the products were randomly chosen between 1 to 5 percent by weight. Limits for the concentrations were selected to coincide with the data presented in Tables I - XII in order to verify that the anticaries activity of the aldehydes in the product vehicles tested was equivalent to the activity previously established for the aldehydes alone.
# [3] = tested on: Lactobacillus casei ATCC 4646; test: as above; format: cell-based; conditions: 1 to 5 percent aldehyde
# Experimental: as §3, §4, §5, §6, §7, §8
# Streptococcus spp. KI-R = test: as above; format: cell-based; conditions: 1 to 5 percent aldehyde
# Experimental: as §3, §4, §5, §6, §7, §8
# [4] = tested on: Lactobacillus casei ATCC 4646; test: Acid production inhibition by aldehydes in product vehicles, broth-tube technique; format: cell-based; conditions: 1 to 5 percent aldehyde
# Experimental: as §3
# (a)Measured by broth-tube technique.
# as §5, §6, §7, §8
# Lactobacillus casei = test: Acid production inhibition, broth-tube technique; conditions: single agent
# Text: (§9) The data was compiled through well-known broth tube analysis techniques.
# Streptococcus sp. FA-1 = test: Acid production inhibition, broth-tube technique; conditions: single agent
# Text: as §9
# [5] = In vivo caries evaluation, Osborne-Mendel strain 1 rat; set-up: species or system rat (Osborne-Mendel strain 1); Caries Score, Mean Incidence / Caries Score, Mean Extent: scale not given here; conditions: Table II, 90 days
# Text: as §1, §2
# ^(a) Agents were incorporated in the diet at a 1 percent level.
# [6] = in compressed candy tablet, 2 h incubation
# [7] = in compressed candy tablet, 5 h incubation
# [8] = in compressed candy tablet, 24 h incubation
# [9] = in dextrose syrup, 2 h incubation
# [10] = in dextrose syrup, 5 h incubation
# [11] = in dextrose syrup, 24 h incubation
# [12] = in sucrose syrup, 2 h incubation
# [13] = in sucrose syrup, 5 h incubation
# [14] = in sucrose syrup, 24 h incubation
# [15] = in tooth powder (aqueous extract), 2 h incubation
# [16] = in tooth powder (aqueous extract), 5 h incubation
# [17] = in tooth powder (aqueous extract), 24 h incubation
# [18] = in toothpaste (aqueous extract), 2 h incubation
# [19] = in toothpaste (aqueous extract), 5 h incubation
# [20] = in toothpaste (aqueous extract), 24 h incubation
# [21] = Student's test, 95 percent confidence limit
smiles,measurement,setting,value
"O=C[C@H](O)CO (racemic) [d,1-Glyceraldehyde]",Anticaries effect in laboratory animals,[1],significant anticaries effects
same,Acid Production Inhibition,oral microorganisms,excellent acid production inhibition
same,Growth Inhibition,[2]; [6],99.7 Per Cent
same,Growth Inhibition,[2]; [7],99.99 Per Cent
same,Growth Inhibition,[2]; [8],N.S.
same,Growth Inhibition,[2]; [9],97.5 Per Cent
same,Growth Inhibition,[2]; [10],> 99.99 Per Cent
same,Growth Inhibition,[2]; [11],0 Per Cent
same,Growth Inhibition,"[2]; in mouthwash, 2 h incubation",95.0 Per cent
same,Growth Inhibition,"[2]; in mouthwash, 5 h incubation",99.98 Per cent
same,Growth Inhibition,"[2]; in mouthwash, 24 h incubation",N.S.
same,Growth Inhibition,[2]; [12],96 Per cent
same,Growth Inhibition,[2]; [13],99.6 Per cent
same,Growth Inhibition,[2]; [14],0 Per cent
same,Growth Inhibition,[2]; [15],N.S.
same,Growth Inhibition,[2]; [16],99.3 Per cent
same,Growth Inhibition,[2]; [17],N.S.
same,Growth Inhibition,[2]; [18],97 Per cent
same,Growth Inhibition,[2]; [19],N.S.
same,Growth Inhibition,[2]; [20],100 Per cent
same,Growth Inhibition,[3]; [6],N.S.
same,Growth Inhibition,[3]; [7],N.S.
same,Growth Inhibition,[3]; [8],100 Per Cent
same,Growth Inhibition,[3]; [9],N.S.
same,Growth Inhibition,[3]; [10],N.S.
same,Growth Inhibition,[3]; [11],> 99.99 Per Cent
same,Growth Inhibition,[3]; [12],0 Per cent
same,Growth Inhibition,[3]; [13],N.S.
same,Growth Inhibition,[3]; [14],99 Per cent
same,Growth Inhibition,[3]; [15],N.S.
same,Growth Inhibition,[3]; [16],N.S.
same,Growth Inhibition,[3]; [17],99.3 Per cent
same,Growth Inhibition,[3]; [18],N.S.
same,Growth Inhibition,[3]; [19],N.S.
same,Growth Inhibition,[3]; [20],100 Per cent
same,Growth Inhibition,Streptococcus spp. KI-R; [6],0 Per Cent
same,Growth Inhibition,Streptococcus spp. KI-R; [7],N.S.
same,Growth Inhibition,Streptococcus spp. KI-R; [8],N.S.
same,Growth Inhibition,Streptococcus spp. KI-R; [9],98 Per Cent
same,Growth Inhibition,Streptococcus spp. KI-R; [10],> 99.99 Per Cent
same,Growth Inhibition,Streptococcus spp. KI-R; [11],> 100 Per Cent
same,Growth Inhibition,"Streptococcus spp. KI-R; in mouthwash, 2 h incubation",> 99.99 Per cent
same,Growth Inhibition,"Streptococcus spp. KI-R; in mouthwash, 5 h incubation",99.99 Per cent
same,Growth Inhibition,"Streptococcus spp. KI-R; in mouthwash, 24 h incubation",100 Per cent
same,Growth Inhibition,Streptococcus spp. KI-R; [12],90 Per cent
same,Growth Inhibition,Streptococcus spp. KI-R; [13],90 Per cent
same,Growth Inhibition,Streptococcus spp. KI-R; [14],99 Per cent
same,Growth Inhibition,Streptococcus spp. KI-R; [15],99.88 Per cent
same,Growth Inhibition,Streptococcus spp. KI-R; [16],99.99 Per cent
same,Growth Inhibition,Streptococcus spp. KI-R; [17],100 Per cent
same,Growth Inhibition,Streptococcus spp. KI-R; [18],N.S.
same,Growth Inhibition,Streptococcus spp. KI-R; [19],N.S.
same,Growth Inhibition,Streptococcus spp. KI-R; [20],0 Per cent
same,Acid Production Inhibition,[4]; [6],0 Per Cent
same,Acid Production Inhibition,[4]; [7],0 Per Cent
same,Acid Production Inhibition,[4]; [8],73 Per Cent
same,Acid Production Inhibition,[4]; [9],57 Per Cent
same,Acid Production Inhibition,[4]; [10],33 Per Cent
same,Acid Production Inhibition,[4]; [11],89 Per Cent
same,Acid Production Inhibition,[4]; [12],0 Per cent
same,Acid Production Inhibition,[4]; [13],30 Per cent
same,Acid Production Inhibition,[4]; [14],79 Per cent
same,Acid Production Inhibition,[4]; [15],0 Per cent
same,Acid Production Inhibition,[4]; [16],0 Per cent
same,Acid Production Inhibition,[4]; [17],84 Per cent
same,Acid Production Inhibition,[4]; [18],0 Per cent
same,Acid Production Inhibition,[4]; [19],0 Per cent
same,Acid Production Inhibition,[4]; [20],0 Per cent
same,Acid Production Inhibition,Lactobacillus casei; 0.02 percent,11%
same,Acid Production Inhibition,Lactobacillus casei; 0.03 percent,17%
same,Acid Production Inhibition,Lactobacillus casei; 0.04 percent,22%
same,Acid Production Inhibition,Streptococcus sp. FA-1; 0.01 percent,4%
same,Acid Production Inhibition,Streptococcus sp. FA-1; 0.015 percent,10%
same,Acid Production Inhibition,Streptococcus sp. FA-1; 0.02 percent,21%
CCCCCCCCCC=O [Decanaldehyde],Anticaries effect in laboratory animals,[1],significant anticaries activity
same,"Caries Score, Mean Incidence","[5]; 1 percent in diet, RCD control 19.0 (octan-), 14.1 (nonan-), 17.6 (decan-), 22.3 (undecylenic)",10.4
same,"Caries Score, Mean Extent","[5]; 1 percent in diet, RCD control 49.6 (octan-), 34.3 (nonan-), 46.0 (decan-), 54.6 (undecylenic)",24.1
same,"Caries Extent Reduction, statistical evaluation",[5]; [21],Significant
same,"Caries Incidence Reduction, statistical evaluation",[5]; [21],Significant
same,Growth Inhibition,[2]; [6],> 99.99 Per Cent
same,Growth Inhibition,[2]; [7],> 99.99 Per Cent
same,Growth Inhibition,[2]; [8],100 Per Cent
same,Growth Inhibition,[2]; [9],> 99.99 Per Cent
same,Growth Inhibition,[2]; [10],100 Per Cent
same,Growth Inhibition,[2]; [11],100 Per Cent
same,Growth Inhibition,[2]; [12],> 99.99 Per cent
same,Growth Inhibition,[2]; [13],> 99.99 Per cent
same,Growth Inhibition,[2]; [14],N.S.
same,Growth Inhibition,[2]; [18],N.S.
same,Growth Inhibition,[2]; [19],N.S.
same,Growth Inhibition,[2]; [20],0 Per cent
same,Growth Inhibition,[3]; [6],99.98 Per Cent
same,Growth Inhibition,[3]; [7],100 Per Cent
same,Growth Inhibition,[3]; [8],100 Per Cent
same,Growth Inhibition,[3]; [9],99.7 Per Cent
same,Growth Inhibition,[3]; [10],100 Per Cent
same,Growth Inhibition,[3]; [11],100 Per Cent
same,Growth Inhibition,[3]; [12],99.5 Per cent
same,Growth Inhibition,[3]; [13],> 99.9 Per cent
same,Growth Inhibition,[3]; [14],> 99.99 Per cent
same,Growth Inhibition,[3]; [18],0 Per cent
same,Growth Inhibition,[3]; [19],N.S.
same,Growth Inhibition,[3]; [20],0 Per cent
same,Growth Inhibition,Streptococcus spp. KI-R; [6],N.S.
same,Growth Inhibition,Streptococcus spp. KI-R; [7],N.S.
same,Growth Inhibition,Streptococcus spp. KI-R; [8],N.S.
same,Growth Inhibition,Streptococcus spp. KI-R; [9],100 Per Cent
same,Growth Inhibition,Streptococcus spp. KI-R; [10],100 Per Cent
same,Growth Inhibition,Streptococcus spp. KI-R; [11],100 Per Cent
same,Growth Inhibition,Streptococcus spp. KI-R; [12],> 99.99 Per cent
same,Growth Inhibition,Streptococcus spp. KI-R; [13],> 99.99 Per cent
same,Growth Inhibition,Streptococcus spp. KI-R; [14],N.S.
same,Growth Inhibition,Streptococcus spp. KI-R; [18],0 Per cent
same,Growth Inhibition,Streptococcus spp. KI-R; [19],N.S.
same,Growth Inhibition,Streptococcus spp. KI-R; [20],N.S.
same,Acid Production Inhibition,[4]; [6],0 Per Cent
same,Acid Production Inhibition,[4]; [7],67 Per Cent
same,Acid Production Inhibition,[4]; [8],97 Per Cent
same,Acid Production Inhibition,[4]; [9],67 Per Cent
same,Acid Production Inhibition,[4]; [10],77 Per Cent
same,Acid Production Inhibition,[4]; [11],96 Per Cent
same,Acid Production Inhibition,[4]; [12],0 Per cent
same,Acid Production Inhibition,[4]; [13],95 Per cent
same,Acid Production Inhibition,[4]; [14],99 Per cent
same,Acid Production Inhibition,[4]; [18],80 Per cent
same,Acid Production Inhibition,[4]; [19],80 Per cent
same,Acid Production Inhibition,[4]; [20],83 Per cent
